Test results published in patent US8366962B2, “Polymerizable liquid crystal compounds having oxiranyl group, polymerizable liquid crystal compositions and polymers” (JNC Corporation, priority 2009, dated 2013).

Assay: Solubility in PGMEA/MMP: deposition of crystals when the solution is allowed to stand at room temperature
Type: physicochemical
Conditions: 70/30 by weight mixture with compound (M1-19-1), 30% by weight solution in PGMEA/MMP=9/1 by volume
Text: Incidentally, PGMEA and MMP stand for propylene glycol […] ether acetate and methyl 3-methoxypropionate, respectively.

## Cc1cc(OC(=O)c2ccc(OCCCCOCC3(C)CO3)cc2)ccc1OC(=O)c1ccc(OCCCCOCC2(C)CO2)cc1 (stereo not shown) [Compound (1-1-14)]
  time allowed to stand without deposition of crystals: more than 3 days
